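48-hour exposure; five concentrations; linearly interpolated endpoints. The concentration for 50% growth inhibition is given as GI50.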 Active and inactive are the calls of the source. No stated cut-off is given here; in the data, active = GI50 up to about 1.1 µM and inactive = higher.

Among the test systems are HCC 2998; SNB-19; EKVX; NCI-H522; NCI-H226; SF-295; NCI-H23; OVCAR-4; SK-MEL-5; HOP-62; CAKI-1; HOP-92; SF-539; UACC-257; SN12C; BT-549; MDA-MB-435; OVCAR-5; SR.
Common to all, as to experiment: NCI-60 cell line screen, 48 h

Turning to `CC(C)(C)[Si](C)(C)OCC1OC(n2ccc(=O)[nH]c2=O)C(O[Si](C)(C)C(C)(C)C)[C@@]12O[C@H]2C(N)=O` (stereo partly drawn), the GI50 in the test on HCC 2998 is 11.9 µM (inactive); with SNB-19, 10.9 µM (inactive); with EKVX it was 16.2 µM (inactive); in the test with NCI-H522 it was 2.22 µM (inactive); in the test with NCI-H226 it was 0.445 µM (active); with SF-295, 4.56 µM (inactive). For the same molecule, the GI50 was 12.2 µM (inactive) in the test on NCI-H23; 18.5 µM (inactive) in the test with OVCAR-4; 4.06 µM (inactive) in the test on SK-MEL-5; 13.8 µM (inactive) in the test on HOP-62; 11.6 µM (inactive) with CAKI-1; > 10 µM (inactive) in the test with HOP-92. In addition, the GI50 is 3.05 µM (inactive) with SF-539; 26.2 µM (inactive) with UACC-257; 13 µM (inactive) in the test with SN12C; 18.5 µM (inactive) in the test on BT-549; 4.92 µM (inactive) in the test on MDA-MB-435; 11.8 µM (inactive) in the test on OVCAR-5.
Regarding `CN(CCc1ccccn1)C(=S)N/N=C/c1ccccn1`, the GI50 in the test on HCC 2998 was 0.23 µM (active); with SNB-19 it was 4.69 µM (inactive); with EKVX, 0.102 µM (active); in the test with SR, < 0.01 µM (active); in the test with NCI-H522 it was < 0.01 µM (active); in the test with NCI-H226, 0.0516 µM (active). The GI50 in the test with SF-295 was 0.147 µM (active); in the test on NCI-H23, < 0.0275 µM (active); in the test with OVCAR-4, 0.112 µM (active); with SK-MEL-5, 0.11 µM (active); in the test on HOP-62 it was 0.0336 µM (active); in the test with CAKI-1 it was < 0.01 µM (active). In addition, the GI50 in the test on HOP-92 was 0.105 µM (active); in the test on SF-539 it was 0.0935 µM (active); in the test with UACC-257, < 0.0213 µM (active); in the test with SN12C, 0.111 µM (active); with MDA-MB-435, 0.678 µM (active); in the test on OVCAR-5 it was 0.0238 µM (active).
Consider `O=C1/C(=C/c2cccc([N+](=O)[O-])c2)Sc2scc(-c3ccc([N+](=O)[O-])cc3)[n+]21`, for which the GI50 in the test with HCC 2998 was 16.4 µM (inactive); with SNB-19, 18.9 µM (inactive); in the test with EKVX, 18.4 µM (inactive); with NCI-H226 it was 26.3 µM (inactive); in the test on SF-295 it was 14.8 µM (inactive); with NCI-H23, 15.2 µM (inactive). Moreover, the GI50 with OVCAR-4 was 30.4 µM (inactive); in the test with SK-MEL-5, 27.7 µM (inactive); with HOP-62 it was 16.6 µM (inactive); in the test with CAKI-1, 20.6 µM (inactive); in the test on HOP-92, 24.5 µM (inactive); in the test on SF-539, 23.8 µM (inactive). For the same molecule, the GI50 in the test with UACC-257 is 21.8 µM (inactive); in the test with SN12C it was 18.3 µM (inactive); in the test on BT-549, 11.6 µM (inactive); in the test with MDA-MB-435 it was 16.9 µM (inactive); in the test with OVCAR-5, 24.5 µM (inactive).
For the molecule `C[C@@H]1CC[C@]2(C)C3(C)CC[C@]2(OC3=O)[C@@]12CC(c1ccoc1)OC2=O` (stereo partly drawn), the GI50 is > 100 µM (inactive) with HCC 2998; > 100 µM (inactive) in the test with SNB-19; 72.3 µM (inactive) in the test on EKVX; 34.8 µM (inactive) in the test with SR; 2.15 µM (inactive) in the test with NCI-H522; > 100 µM (inactive) in the test with NCI-H226. Further, the GI50 was > 100 µM (inactive) with SF-295; 29.6 µM (inactive) in the test with NCI-H23; 20.7 µM (inactive) in the test on OVCAR-4; 62.5 µM (inactive) in the test with SK-MEL-5; > 100 µM (inactive) in the test on HOP-62; 34.3 µM (inactive) in the test with CAKI-1. Also, the GI50 in the test with HOP-92 is 32.8 µM (inactive); in the test on SF-539 it was 30.5 µM (inactive); in the test with SN12C, 33.8 µM (inactive); in the test on MDA-MB-435, 25.3 µM (inactive); in the test on OVCAR-5, 30.8 µM (inactive).
As for `C/C(=N\Nc1nc2ccccc2[nH]1)c1ncccn1`, the GI50 was 0.721 µM (active) with HCC 2998; 0.0879 µM (active) in the test with SNB-19; 0.026 µM (active) with EKVX; < 0.021 µM (active) in the test on SR; < 0.0164 µM (active) with NCI-H522; 0.0422 µM (active) in the test on NCI-H226. The GI50 with SF-295 was 0.0453 µM (active); in the test with NCI-H23, 0.0621 µM (active); with OVCAR-4, 0.0528 µM (active); with SK-MEL-5, 0.0574 µM (active); with HOP-62, 1.64 µM (inactive); in the test with CAKI-1 it was < 0.0224 µM (active). Moreover, the GI50 was 0.0552 µM (active) in the test on HOP-92; 0.0172 µM (active) in the test with SF-539; 0.136 µM (active) in the test with UACC-257; 0.0715 µM (active) in the test with SN12C; 0.0968 µM (active) with MDA-MB-435; 0.735 µM (active) in the test with OVCAR-5.
`O=C1OC2C(O)C(=O)OC2C1O` (stereo not drawn): the GI50 with HCC 2998, in the test with SNB-19, in the test on EKVX, with SR, in the test with NCI-H522 and with NCI-H226 was > 100 µM (inactive) in each case. The GI50 in the test with SF-295, in the test with NCI-H23, in the test with OVCAR-4, in the test on SK-MEL-5, in the test with HOP-62 and in the test on CAKI-1 was > 100 µM (inactive) throughout. For the same molecule, the GI50 in the test with HOP-92, in the test on SF-539, in the test on UACC-257, in the test on SN12C, with MDA-MB-435 and in the test on OVCAR-5 was > 100 µM (inactive) throughout.
Consider `COC(=O)CC1C2(C)C3=C(C)C(c4ccoc4)CC3OC2C2OC(=O)C3(C)C=CC(=O)C1(C)C23` (stereo not drawn), for which the GI50 in the test on HCC 2998 is 1.41 µM (inactive); with SNB-19, 2.25 µM (inactive); in the test on EKVX, 1.36 µM (inactive); in the test with NCI-H522, 0.575 µM (active); in the test with NCI-H226, 2.13 µM (inactive); in the test on SF-295, 3.22 µM (inactive). The GI50 in the test on NCI-H23 is 1.57 µM (inactive); in the test with OVCAR-4 it was 2.25 µM (inactive); with SK-MEL-5, 1.6 µM (inactive); in the test with HOP-62, 3.28 µM (inactive); with CAKI-1, 0.841 µM (active); in the test with HOP-92, 1.82 µM (inactive). The GI50 is 0.869 µM (active) with SF-539; 1.95 µM (inactive) in the test with UACC-257; 0.859 µM (active) with SN12C; 0.9 µM (active) with BT-549; 0.656 µM (active) with MDA-MB-435; 2.3 µM (inactive) with OVCAR-5.
`Cc1cc(C)nc(NS(=O)(=O)c2ccc(Nc3nncc(=O)n3N)cc2)n1`: the GI50 with HCC 2998 is 30.5 µM (inactive); with SNB-19 it was 30.6 µM (inactive); in the test on EKVX, 23.1 µM (inactive); with SR, 16.8 µM (inactive); with NCI-H522, 12.8 µM (inactive); in the test with SF-295, 31.6 µM (inactive). The GI50 is 14.4 µM (inactive) in the test with NCI-H23; 18.1 µM (inactive) in the test on OVCAR-4; 17 µM (inactive) in the test with SK-MEL-5; 18.7 µM (inactive) with HOP-62; 16 µM (inactive) in the test with CAKI-1; 31.6 µM (inactive) in the test on SF-539. The GI50 in the test on UACC-257 was 19.8 µM (inactive); with BT-549, 18.4 µM (inactive); in the test on MDA-MB-435, 18.6 µM (inactive); in the test on OVCAR-5, 18.2 µM (inactive).
Turning to `CC1=CC(=O)/C(=C/NC(N)=S)C(=O)O1`, the GI50 in the test on HCC 2998 is > 100 µM (inactive); in the test on SNB-19, 97.1 µM (inactive); with EKVX, > 100 µM (inactive); with NCI-H522 it was > 100 µM (inactive); with NCI-H226, > 100 µM (inactive); in the test with SF-295, > 100 µM (inactive). The GI50 in the test on NCI-H23 is > 100 µM (inactive); in the test on OVCAR-4, > 100 µM (inactive); in the test on SK-MEL-5, 92 µM (inactive); in the test with HOP-62, 97.5 µM (inactive); with CAKI-1, > 100 µM (inactive); in the test with HOP-92 it was 15.3 µM (inactive). Also, the GI50 with SF-539, with UACC-257, with SN12C, with BT-549, in the test on MDA-MB-435 and in the test on OVCAR-5 was > 100 µM (inactive) each time.
Consider `CN(C)Cc1cc(C(=O)/C=C/c2c(Cl)cccc2Cl)cc(CN(C)C)c1O`, for which the GI50 was 19 µM (inactive) in the test on HCC 2998; 14.8 µM (inactive) in the test on SNB-19; 10.9 µM (inactive) in the test on EKVX; 3.18 µM (inactive) in the test with SR; 2.98 µM (inactive) with NCI-H522; 14.4 µM (inactive) in the test with NCI-H226. Also, the GI50 with SF-295 is 8.51 µM (inactive); in the test with NCI-H23, 14.6 µM (inactive); in the test on OVCAR-4 it was 8.55 µM (inactive); in the test with SK-MEL-5 it was 3.76 µM (inactive); in the test on HOP-62, 7.85 µM (inactive); in the test on CAKI-1, 2.88 µM (inactive). In addition, the GI50 in the test with HOP-92 is 3.05 µM (inactive); in the test on SF-539, 14.5 µM (inactive); in the test on UACC-257 it was 4.46 µM (inactive); with SN12C, 5.82 µM (inactive); with MDA-MB-435, 9.2 µM (inactive); with OVCAR-5 it was 18.2 µM (inactive).
With `COc1ccc2c(c1O)-c1c(OC)c(OC)cc3c1[C@H](C2)[N+](C)(C)CC3`, the GI50 in the test on HCC 2998, with SNB-19, with EKVX, in the test on NCI-H522, in the test on NCI-H226 and in the test with SF-295 was > 100 µM (inactive) each time. For the same molecule, the GI50 was > 100 µM (inactive) in the test with NCI-H23; > 100 µM (inactive) in the test with OVCAR-4; > 100 µM (inactive) with SK-MEL-5; > 100 µM (inactive) in the test on CAKI-1; 13.2 µM (inactive) in the test on HOP-92; > 100 µM (inactive) in the test on SF-539. The GI50 in the test on UACC-257, in the test on SN12C, with BT-549, in the test with MDA-MB-435 and with OVCAR-5 was > 100 µM (inactive) in each case.
